Data as given in article PMC6494957 (Frontiers in Microbiology, 2019).
In brackets after ≈: the same amount, converted by molar mass. Positions of bridges follow the written chain, without caps; N, C: chain ends. Non-standard residues stand in square brackets, D forms with d. Residues, ends and D or L forms follow the SMILES beside them. Dab = NCC[C@H](N)C(=O)O

How the values were obtained:
[1] = system: all the cell lines tested (HaCaT, HEK 293, MDCK); experiment: cells; conditions: 24 h
Description: Cells were maintained in Dulbecco’s modified Eagle’s medium (DMEM) with 10% fetal bovine serum (FBS) and 1% PenStrep (100 U/mL Penicillin and 100 μg/mL Streptomycin) at 37°C with 5% CO2. Cells were serially passaged at ∼80% confluence ∼ every 4 days. Assays were performed in duplicate in 96 well plates seeded with ∼25,000 cells per well. […] Briefly, the antimicrobials were prepared by performing a twofold serial dilution at 100× of tested concentration in DMSO. Subsequently, a 1 μl aliquot of each concentration was transferred to a sterile 96-well plate containing fresh DMEM with either 10% FBS. After mixing four times, the media aliquots with different concentrations of antimicrobial were transferred to each well of the 96-well plate seeded with cells, using wells containing 1–2% DMSO only as control. To determine the effect of FBS on the cytotoxicity of each compound, DMEM with 40% FBS containing different concentrations of antimicrobial was prepared as described above. After 24 h of exposure, WST-1 reagent (Cell Proliferation Assay reagent, Roche) at a concentration of 10% was added to each well. Absorbance at A450 nm on a Multiskan Ascent 354 Spectrophotometer (Labsystems) was measured after 1 h of incubation. The IC50 value was determined for each compound against each cell line via non-linear regression (three parameters) using GraphPad Prism v6 software.

[2] = system: Gram-negative control strains; experiment: Checkerboard, summary over Gram-negative strains; type: cell-based; conditions: in combination with robenidine; for P. aeruginosa
Description: (§1) Briefly, antimicrobial stock solutions for robenidine and PMBN were prepared at a concentration of 12.8 mg/ml in DMSO. […] A 1 μl aliquot of the first compound from each combination was dispensed along the abscissa (from row A to G) of the 96-well microplate, while the second compound was dispensed along the ordinate (from column 12 to column 3) using an electronic multichannel pipette followed by 89 μl of LB broth. Each well of the plate was inoculated with an aliquot of 10 μl bacterial suspension at a concentration of 1-5 × 10^6 colony forming units (CFU) per ml. Subsequently, the plate was incubated at 37°C for 24 h. The fractional inhibitory concentration index (FICI) described the results of the combinations, and was calculated utilizing the following formula:
(§2) DRI = MIC of drug alone/MIC of drug in combination

[3] = system: A. calcoaceticus (human clinical isolate); experiment: microbe, parasite or virus in culture
Description: (§3) The MIC for ampicillin or gentamicin against each isolate was determined for each test to serve as an internal quality control. The MICs of isolates were determined by visual reading and using an EnSpire Multimode Plate Reader 2300 atA600nm.
as §1, §2

A. baumannii ATCC 19606 = experiment: microbe, parasite or virus in culture
Description: as §3, §1, §2

P. putida ATCC 17428 = experiment: microbe, parasite or virus in culture
Description: as §3, §1, §2

K. pneumoniae ATCC 13883 = experiment: microbe, parasite or virus in culture
Description: as §3, §1, §2

E. coli ATCC 11229 = experiment: microbe, parasite or virus in culture
Description: as §3, §1, §2

A. baumannii ATCC 12457 = experiment: microbe, parasite or virus in culture
Description: as §3, §1, §2

E. coli ATCC 25922 = experiment: microbe, parasite or virus in culture; conditions: for MIC: Escherichia coli, ATCC25922, read-out: MIC, single drug
Description: as §3, §1, §2

P. aeruginosa ATCC 27853 = experiment: microbe, parasite or virus in culture; conditions: for MIC: Pseudomonas aeruginosa, ATCC27853, read-out: MIC, single drug
Description: as §3, §1, §2

P. mirabilis ATCC 43071 = experiment: microbe, parasite or virus in culture; conditions: ATCC 43071, 24 h
Description: as §3, §1, §2

[4] = system: P. mirabilis (n = 21) clinical isolates from otitis externa cases in dogs; experiment: MIC/MBC and checkerboard, canine otitis externa isolates; type: cell-based, Proteus mirabilis; conditions: canine otitis externa; for MIC50 / MIC90: Proteus mirabilis; for MIC50: read-out: MIC50, single drug; for MIC90: read-out: MIC90, single drug
Excerpt: (§4) Escherichia coli ATCC 25922, E. coli ATCC 11229, P. aeruginosa ATCC 27853, P. aeruginosa PA01, Pseudomonas putida ATCC 17428, P. mirabilis ATCC 43071, K. pneumoniae ATCC 13883, A. baumannii ATCC 19606, and A. baumannii ATCC 12457 were used for preliminary susceptibility testing and combination experiments. S. aureus ATCC 29213 and S. pneumoniae ATCC 49619 were used as internal quality controls. A variety of bacterial organisms from both human and canine infections were investigated in this study (n = 119 isolates in total). Twenty-eight clinical Acinetobacter spp. isolates were obtained from cases of human skin and soft tissue infections, including 18 Acinetobacter baumannii and 10 A. calcoaceticus, kindly provided by a person (Institute of Medical and Veterinary Science, South Australia). […] Ninety-one clinical isolates were obtained from cases of canine otitis externa, including seven methicillin-susceptible S. pseudintermedius (MSSP), 13 multidrug- and methicillin-resistant S. pseudintermedius (MRSP) ([Saputra et al., 2017]), 20 beta-haemolytic Streptococcus spp., 30 P. aeruginosa (10 of them resistant to gentamicin and 21 P. mirabilis isolates). These isolates were obtained from the bacterial collection of the national survey of antimicrobial resistance in animals conducted in Australia. Swab samples from dogs with signs of otitis externa were collected by veterinarians and submitted to government, private or university diagnostic laboratories throughout Australia. After routine bacterial identification and the removal of confidential information, the participating veterinary diagnostic laboratories submitted the bacteria and their clinical information to PC2 Laboratories, Australian Centre for Antimicrobial Resistance Ecology, School of Animal and Veterinary Sciences, University of Adelaide, Roseworthy Campus, Roseworthy, SA, Australia, for further study. Thus, animal ethics approval was not required in this study. These organisms were identified to species level using biochemical testing and MALDI-TOF mass spectrometry (Bruker, Preston, VIC, Australia).
as §3
(§5) Briefly, 10 μl aliquots from each duplicate well from the MIC assays (starting from the MIC for each compound) were inoculated onto a sheep blood agar (SBA) plate and incubated at 37°C.
as §1, §2

[5] = system: S. pseudintermedius (n = 20) clinical isolates from otitis externa cases in dogs; experiment: as above; type: cell-based, Staphylococcus pseudintermedius; conditions: canine otitis externa; for MIC50 / MIC90: Staphylococcus pseudintermedius; for MIC50: read-out: MIC50, single drug; for MIC90: read-out: MIC90, single drug
Excerpt: as §4, §3, §5, §1, §2

[6] = system: Beta-haemolytic streptococci (n = 20) clinical isolates from otitis externa cases in dogs; experiment: as above; type: cell-based, beta-haemolytic Streptococcus spp.; conditions: canine otitis externa; for MIC50 / MIC90: Streptococcus; for MIC50: read-out: MIC50, single drug; for MIC90: read-out: MIC90, single drug
Excerpt: as §4, §3, §5, §1, §2

S. aureus ATCC 29213 = experiment: MIC broth microdilution, quality control strain; type: cell-based; conditions: Staphylococcus aureus, ATCC29213; S. aureus ATCC 29213, quality control strain
Description: (§6) Luria Bertani (LB) broth (Oxoid, Australia) was applied for MIC testing in lieu of cation-adjusted Mueller–Hinton broth as robenidine has been previously shown to chelate calcium ions. Furthermore, a twofold serial dilution of robenidine was performed in 100% DMSO, with 1 μl dispensed to each well due to the hydrophobicity of the compound ([Abraham et al., 2016]). The MIC for ampicillin or gentamicin against each isolate was determined for each test to serve as an internal quality control. The MICs of isolates were determined by visual reading and using an EnSpire Multimode Plate Reader 2300 atA600nm.

[7] = system: P. aeruginosa (n = 30) clinical isolates from otitis externa cases in dogs; experiment: MIC/MBC and checkerboard, canine otitis externa isolates; type: cell-based, Pseudomonas aeruginosa; conditions: canine otitis externa; for MIC50 / MIC90: Pseudomonas aeruginosa; for MIC50: read-out: MIC50, single drug; for MIC90: read-out: MIC90, single drug
Excerpt: as §4, §3, §5, §1, §2

S. pneumoniae ATCC 49619 = experiment: MIC broth microdilution, quality control strain; type: cell-based; conditions: Streptococcus pneumoniae, ATCC49619; S. pneumoniae ATCC 49619, quality control strain
Description: as §6

Row | MIC50 [4] | MIC90 [4] | MIC50 [5] | MIC90 [5] | MIC range, single drug [5] | MIC (E. coli ATCC 25922) | MIC (P. aeruginosa ATCC 27853) | MIC (S. aureus ATCC 29213) | MIC50 [7] | MIC90 [7] | MIC range, single drug [7] | Structure (SMILES) | MIC50 [6] | MIC90 [6] | MIC range, single drug [6] | also measured
1 |  |  |  |  |  |  |  |  |  |  |  | CC(C)C[C@@H]1NC(=O)[C@@H](Cc2ccccc2)NC(=O)[C@H](CCN)NC(=O)[C@@H](NC(=O)[C@H](CCN)NC(=O)[C@@H](N)[C@@H](C)O)CCNC(=O)[C@H]([C@@H](C)O)NC(=O)[C@H](CCN)NC(=O)[C@H](CCN)NC1=O [PMBN, polymyxin B nonapeptide] (H-T[Dab][Dab][Dab][dF]L[Dab][Dab]T; lactam 3-C; N-terminus assumed) |  |  |  | IC50 [1]: > 32 µg/mL; fold reduction of the MIC of PMBN [2]: 4- to 64 fold; MIC, single drug ([3]; 24 h): >32 µg/mL; MIC in combination PMBN:ROB ([3]; A. calcoaceticus human clinical isolate, concentration of the labelled component): 1.5 µg/mL; MIC in combination PMBN:ROB (A. baumannii ATCC 19606; A. baumannii ATCC 19606, concentration of the labelled component): 1 µg/mL; MIC, single drug (A. baumannii ATCC 19606; ATCC 19606, 24 h): >32 µg/mL; MIC, single drug (P. putida ATCC 17428; ATCC 17428, 24 h): 4 µg/mL; MIC in combination PMBN:ROB (P. putida ATCC 17428; P. putida ATCC 17428, concentration of the labelled component): 1:1 μg/ml; MIC, single drug (K. pneumoniae ATCC 13883; ATCC 13883, 24 h): >32 µg/mL; MIC in combination PMBN:ROB (K. pneumoniae ATCC 13883; K. pneumoniae ATCC 13883, concentration of the labelled component): 0.5 µg/mL; MIC, single drug (E. coli ATCC 11229; ATCC 11229, 24 h): >32 µg/mL; MIC in combination PMBN:ROB (E. coli ATCC 11229; E. coli ATCC 11229, concentration of the labelled component): 6 µg/mL; MIC in combination PMBN:ROB (A. baumannii ATCC 12457; A. baumannii ATCC 12457, concentration of the labelled component): 1 µg/mL; MIC, single drug (A. baumannii ATCC 12457; ATCC 12457, 24 h): >32 µg/mL; MIC, single drug (E. coli ATCC 25922; ATCC 25922, 24 h): >32 µg/mL; MIC in combination PMBN:ROB (E. coli ATCC 25922; E. coli ATCC 25922, concentration of the labelled component): 6 µg/mL; MIC, single drug (P. aeruginosa ATCC 27853; ATCC 27853, 24 h): 2 µg/mL; MIC in combination PMBN:ROB (P. aeruginosa ATCC 27853; P. aeruginosa ATCC 27853, concentration of the labelled component): 0.75 µg/mL; MIC, single drug (P. mirabilis ATCC 43071): >32 µg/mL
2 | 8 µg/mL | 32 µg/mL | 2 µg/mL | 2 µg/mL | 1 to 64 µg/mL | 0.5 µg/mL | 2 µg/mL | 0.5 µg/mL (≈ 1.05 µM) | 32 µg/mL | 64 µg/mL | 0.25 to 64 µg/mL | CNC(C)C1CCC(N)C(OC2C(N)CC(N)C(OC3OCC(C)(O)C(NC)C3O)C2O)O1 (stereo not drawn) [Gentamicin, gentamicin] | 8 µg/mL | 8 µg/mL | 8 to 16 µg/mL | 
3 | 32 µg/mL | 64 µg/mL | 8 µg/mL | 16 µg/mL | 1 to 16 µg/mL | 8 µg/mL | 16 µg/mL | 4 µg/mL (≈ 7.41 µM) | 32 µg/mL | 64 µg/mL | 16 to 64 µg/mL | CN[C@@H]1[C@@H](O[C@H]2O[C@H](CO)[C@@H](N)[C@H](O)[C@H]2O)OC2C[C@@H](N)[C@@H](O[C@H]3[C@H](O)[C@@H](O)[C@H](N)C[C@@H]3N)OC2[C@@H]1O (stereo partly drawn) [Apramycin, apramycin] | 64 µg/mL | 128 µg/mL | 4 to 128 µg/mL | MIC range, single drug [4]: 16 to 64 µg/mL
4 |  |  | 0.125 µg/mL | 8 µg/mL | 0.03 to 32 µg/mL | 4 µg/mL |  | 1 µg/mL (≈ 2.86 µM) |  |  |  | CC1(C)S[C@@H]2[C@H](NC(=O)[C@H](N)c3ccccc3)C(=O)N2[C@H]1C(=O)O [Ampicillin, ampicillin] | 0.125 µg/mL | 0.25 µg/mL | 0.06 to 0.5 µg/mL | MIC (S. pneumoniae ATCC 49619): 0.125 µg/mL (≈ 0.358 µM)
